Article PMC7046148 (Scientific Reports, 2020)

Tested on: Gibco hiPSCs
Experiment: 3D chondrogenic differentiation after LPM differentiation, DMMB assay for sGAG
Type: cell-based, human
Conditions: during 2 d LPM differentiation, then 18 d chondrogenic differentiation; for sGAG/DNA content compared to the DMSO control: thalidomide 20 µM, atRA 3 µM; for reduction of sGAG/DNA content upon chondrogenic differentiation in 3D: thalidomide at 20 µM, atRA at 3 µM
Procedure: For 3D differentiation studies, Gibco hiPSCs were encapsulated in fibrin at 2–4 × 10^6 cells/mL. hiPSCs were passaged with Versene (as described above) and were suspended as small clumps in a solution composed of a 1:4:5:10 dilution of 200 mM CaCl2 in DI water, 50 U/mL human thrombin (Sigma) in 0.1% cell culture BSA in DI water, DPBS, and hiPSC suspension in mTeSR1. The hiPSC suspension was mixed by pipetting, and 0.5 µL droplets of suspended hiPSCs were plated at the bottom of each well of a round-bottom sterile polypropylene plate. hiPSC suspensions were subsequently diluted 5-fold by pipetting up and down in each well with 2 µL of 10 mg/mL human fibrinogen (Sigma) in DPBS (sterile filtered prior to use). Fibrin clot formation proceeded for 10 minutes at room temperature prior to addition of mTeSR-1 and incubation under normal culture conditions overnight. […] For chondrogenic differentiation experiments, cells were cultured in APEL2 + GSKi for the described duration, followed by culture in ACF MesenCult chondrogenic differentiation medium (Stem Cell Technologies) for 17–20 days under normal culture conditions. Encapsulated hiPSCs were characterized by qRT-PCR as described above, except cells were lysed by bead-based homogenization (Bead Mill 4, Thermo Fisher) in buffer RLT that was supplemented with 1% β-mercaptoethanol. RNeasy procedure was carried out per manufacturer’s instructions, including the optional DNase step. Purified RNA samples were stored at −20 °C before analysis using Taqman primer/probes (Thermo Fisher) and fast advanced master mix (Thermo Fisher) on a QuantStudio 5 (Thermo). Samples were compared using normalization to the ACTB in each sample and the control for each experiment using the 2^−ΔΔCT method.
Alternatively, encapsulated hiPSCs were characterized for sulfated glycosaminoglycan (sGAG) content using the dimethylmethylene blue (DMMB) assay protocol[33],[34]. […] After addition of DMMB assay buffer, samples were immediately read at 525 nm, and sGAG composition was calculated in each sample by comparison to a chondroitin sulfate standard that was dissolved in digestion buffer. sGAG content (in µg/mL) was normalized to dsDNA content (in µg/mL) in each sample.
Figure 7 Characterization of hiPSC chondrogenic differentiation in 3D by DMMB assay for sulfated glycosaminoglycans. Chondrogenic differentiation of hiPSCs was assessed by culturing hiPSCs in fibrin gels followed by culture in APEL2/GSKi and subsequent culture in chondrogenic differentiation medium for a total of 21 days in culture after encapsulation. The influence of the duration of LPM differentiation or of chemical treatment during LPM differentiation (for 2 days) on chondrogenic differentiation was assessed by sulfated glycosaminoglycan assay on day 21. […]

Structure (SMILES): O=C1CCC(N2C(=O)c3ccccc3C2=O)C(=O)N1 (stereo not shown) [Thalidomide, thalidomide]
- sGAG/DNA content compared to the DMSO control: decreased sGAG/DNA content
- reduction of sGAG/DNA content upon chondrogenic differentiation in 3D: 30%

Structure (SMILES): CC1=C(/C=C/C(C)=C/C=C/C(C)=C/C(=O)O)C(C)(C)CCC1 [atRA, all-trans retinoic acid]
- sGAG/DNA content compared to the DMSO control: decreased sGAG/DNA content
- reduction of sGAG/DNA content upon chondrogenic differentiation in 3D: complete abolishment
